Data taken from patent publication US20260294839A1, “COMPOSITION AND METHOD OF MAKING” (priority 2023, published 2026).
Where two headings read alike, the source gives them in different places.

Tests used:
Staphylococcus aureus = experiment: Non-peroxide activity (NPA) plate assay with catalase; assay type: cell-based; conditions: duplicate or triplicate mean; invention sample 1 fresh, 2-5 stored 234 days (37° C., room temperature, fridge, freezer)
Procedure: In this test, the enzyme catalase was added to the sample to rapidly break down hydrogen peroxide to water and oxygen. […] The test was carried out using a Gram-positive bacteria, Staphylococcus aureus. The result is a value in % w/v relative to phenol standards. Two honey samples and several control samples consisting of glycerol with additional components were tested alongside the composition of the invention samples and the results are shown in Table 4. Samples were run in duplicate or triplicate and the mean result calculated.
[…] of the composition of the invention were tested: • Sample 1: a freshly made sample • Sample 2: stored for 234 days in a 37° C. incubator • Sample 3: stored for 234 days at room temperature • Sample 4: stored for 234 days in a fridge • Sample 5: stored for 234 days in a freezer
The NPA assay was used, as previously in Example 3.

[1] = tested on: consortium of S. aureus, E. coli and P. aeruginosa; experiment: ISO 11930 preservative effectiveness, bacterial consortium; assay type: cell-based; conditions: for log reduction at 50 % v/v: 50.0% v/v aqueous; for log reduction at 5 % / log reduction at 15 % / log reduction at 50 % / Nx: diluted in aqueous solution; for log reduction at 5 % / log reduction at 15 % / log reduction at 50 %: read-out: Rx (log reduction)
Procedure: (§1) The ISO 11930 industry standard test was to used measure the effectiveness of the compound to act as a preservative (growth inhibition) for up to 28 days (as tested). Preservative action is used to prevent spoilage and contamination of food, cosmetics, and drugs. First, compositions of the invention were diluted in Glycerol (Tables 7 to 8).
(§2) Next, compositions of the invention were diluted in aqueous solution.
According to ISO 11930, compositions of the invention produced a log reduction of >4.14 logs at a concentration of 50.0% v/v, 15.0% v/v, and 5.0% v/v as tested after 7 days, 14 days and 28 days at 25° C. against a consortium of Staphylococcus aureus ATCC 6538, Escherichia coli NCTC 10536 and Pseudomonas aeruginosa ATCC 15442 (Table 9). […]

[2] = tested on: consortium of C. albicans and A. brasiliensis; experiment: ISO 11930 preservative effectiveness, fungal consortium; assay type: cell-based; conditions: for log reduction at 5 % / log reduction at 15 % / log reduction at 50 % / Nx: diluted in aqueous solution; for log reduction at 5 % / log reduction at 15 % / log reduction at 50 %: read-out: Rx (log reduction)
Procedure: as §1, §2
Also according to ISO 11930, compositions of the invention produced a log reduction of >3.27 logs at a concentration of 50.0% v/v, 15.0% v/v, and 5.0% v/v as tested after 7 days, 14 days and 28 days at 25° C. against a consortium of Candida albicans ATCC 10231 and Aspergillus brasiliensis ATCC 16404 (Table 10). […]

[3] = if it accumulates excessively at the wound site; cited from earlier work
[4] = ISO 11930, aqueous solution, 25° C.

## OCC(O)CO [Glycerol, glycerol]
Staphylococcus aureus
  NPA, Mean Result: <9.5 % w/v phenol equivalent
[1]
  level at which it is a preservative, bacteria: > 50.0 % V/V
[1]; 14 days and 28 days, 25° C.
  log reduction at 50 % v/v: > 4.21
[1]; 168 h, 7 days, 25° C.
  log reduction at 50 % v/v: 3.67
[1]; 168 h, 5% (V/V), day 7
  log reduction at 5 %: < 2.84
[1]; 168 h, 15% (V/V), day 7
  log reduction at 15 %: < 2.84
[1]; 168 h, 50% (V/V), day 7
  log reduction at 50 %: 3.67
[1]; 336 h, 5% (V/V), day 14
  log reduction at 5 %: < 2.84
[1]; 336 h, 15% (V/V), day 14
  log reduction at 15 %: 3.28
[1]; 336 h, 50% (V/V), day 14
  log reduction at 50 %: > 4.21
[1]; 672 h, 5% (V/V), day 28
  log reduction at 5 %: < 2.84
[1]; 672 h, 15% (V/V), day 28
  log reduction at 15 %: > 4.21
[1]; 672 h, 50% (V/V), day 28
  log reduction at 50 %: > 4.21
[1]; [4]
  Preservation Criteria A for bacteria: conforms to Preservation Criteria A for bacteria
[1]; 5% (V/V), day 0
  Nx: >3.30E+03
[1]; 5% (V/V), day 7
  Nx: >3.30E+03
[1]; 5% (V/V), day 14
  Nx: >3.30E+03
[1]; 5% (V/V), day 28
  Nx: >3.30E+03
[1]; 15% (V/V), day 0
  Nx: >3.30E+03
[1]; 15% (V/V), day 7
  Nx: >3.30E+03
[1]; 15% (V/V), day 14
  Nx: 1.20E+03
[1]; 15% (V/V), day 28
  Nx: <1.40E+02
[1]; 50% (V/V), day 0
  Nx: >3.30E+03
[1]; 50% (V/V), day 7
  Nx: 4.95E+02
[1]; 50% (V/V), day 14
  Nx: <1.40E+02
[1]; 50% (V/V), day 28
  Nx: <1.40E+02
[2]; 50.0%, 15.0%, 5.0% v/v, 7, 14 and 28 days, 25° C.
  log reduction: did not produce a measurable log reduction
[2]; 168 h, 5% (V/V), day 7
  log reduction at 5 %: < 1.65
[2]; 168 h, 15% (V/V), day 7
  log reduction at 15 %: < 1.65
[2]; 168 h, 50% (V/V), day 7
  log reduction at 50 %: < 1.65
[2]; 336 h, 5% (V/V), day 14
  log reduction at 5 %: < 1.65
[2]; 336 h, 15% (V/V), day 14
  log reduction at 15 %: < 1.65
[2]; 336 h, 50% (V/V), day 14
  log reduction at 50 %: < 1.65
[2]; 672 h, 5% (V/V), day 28
  log reduction at 5 %: < 1.65
[2]; 672 h, 15% (V/V), day 28
  log reduction at 15 %: < 1.65
[2]; 672 h, 50% (V/V), day 28
  log reduction at 50 %: < 1.65
[2]; [4]
  Preservation Criteria A for fungi: does not conform to Preservation Criteria A for fungi
[2]; 5% (V/V), day 0
  Nx: >3.30E+03
[2]; 5% (V/V), day 7
  Nx: >3.30E+03
[2]; 5% (V/V), day 14
  Nx: >3.30E+03
[2]; 5% (V/V), day 28
  Nx: >3.30E+03
[2]; 15% (V/V), day 0
  Nx: >3.30E+03
[2]; 15% (V/V), day 7
  Nx: >3.30E+03
[2]; 15% (V/V), day 14
  Nx: >3.30E+03
[2]; 15% (V/V), day 28
  Nx: >3.30E+03
[2]; 50% (V/V), day 0
  Nx: >3.30E+03
[2]; 50% (V/V), day 7
  Nx: >3.30E+03
[2]; 50% (V/V), day 14
  Nx: >3.30E+03
[2]; 50% (V/V), day 28
  Nx: >3.30E+03
[2]; not tested, shows a fail at 50.0%
  level at which it is a preservative, fungi: > 60.0%

## [Ag] [Silver, silver]
[3]
  effect on wound healing: inhibit healing
